Reference: the supplement of paper PMC10307832

Experiments:
Experiment in all cases: relative viability (nuclei count vs DMSO), 5 days (fraction); higher = more cells survive
[1] = compound: COc1ncc(-c2ccc3nccc(-c4ccnnc4)c3c2)cc1NS(=O)(=O)c1ccc(F)cc1F [Omipalisib] + CC1(C)CCC(c2ccc(Cl)cc2)=C(CN2CCN(c3ccc(C(=O)NS(=O)(=O)c4ccc(N[C@H](CCN5CCOCC5)CSc5ccccc5)c(S(=O)(=O)C(F)(F)F)c4)cc3)CC2)C1 [Navitoclax] (partner 0.5 µM)
Outline: (§1)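 Each reported value is a median over duplicate plates. It expresses relative viability: treated-well nuclei count divided by vehicle-well nuclei count. Lung cancer cell lines in 1536-well plates were dosed by pin tool a day after seeding, alone with one drug or with a fixed anchor-drug dose plus five library-drug doses (not always all listed) in √10 steps, and nuclei were counted after 5 days.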

[2] = compound: COc1ncc(-c2ccc3nccc(-c4ccnnc4)c3c2)cc1NS(=O)(=O)c1ccc(F)cc1F [Omipalisib] + CCNC(=O)c1noc(-c2cc(C(C)C)c(O)cc2O)c1-c1ccc(CN2CCOCC2)cc1 [Luminespib] (partner 0.01 µM)
Outline: as §1

[3] = compound: COc1ncc(-c2ccc3nccc(-c4ccnnc4)c3c2)cc1NS(=O)(=O)c1ccc(F)cc1F [Omipalisib] + C[C@@H](Oc1cc(-c2cnn(C3CCNCC3)c2)cnc1N)c1c(Cl)ccc(F)c1Cl [Crizotinib] (partner 1 µM)
Outline: as §1

[4] = compound: COc1ncc(-c2ccc3nccc(-c4ccnnc4)c3c2)cc1NS(=O)(=O)c1ccc(F)cc1F [Omipalisib] + NC(=O)Nc1cc(-c2cccc(F)c2)sc1C(=O)N[C@H]1CCCNC1 [AZD7762] (partner 0.2 µM)
Outline: as §1

[5] = compound: COc1ncc(-c2ccc3nccc(-c4ccnnc4)c3c2)cc1NS(=O)(=O)c1ccc(F)cc1F [Omipalisib] + Nc1nc2[nH]cc(CCc3ccc(C(=O)N[C@@H](CCC(=O)O)C(=O)O)cc3)c2c(=O)[nH]1 [Pemetrexed] (partner 0.2 µM)
Outline: as §1

[6] = compound: COc1ncc(-c2ccc3nccc(-c4ccnnc4)c3c2)cc1NS(=O)(=O)c1ccc(F)cc1F [Omipalisib] + O=C(CCCCCCC(=O)Nc1ccccc1)NO [Vorinostat] (partner 1 µM)
Outline: as §1

Cell Line	relative viability ([1]; first compound 0.0003 µM)	relative viability ([1]; first compound 0.003 µM)	relative viability ([1]; first compound 0.03 µM)	relative viability ([2]; first compound 0.0003 µM)	relative viability ([2]; first compound 0.003 µM)	relative viability ([2]; first compound 0.03 µM)	relative viability ([3]; first compound 0.0003 µM)	relative viability ([3]; first compound 0.003 µM)	relative viability ([3]; first compound 0.03 µM)	relative viability ([4]; first compound 0.0003 µM)	relative viability ([4]; first compound 0.003 µM)	relative viability ([4]; first compound 0.03 µM)	relative viability ([5]; first compound 0.0003 µM)	relative viability ([5]; first compound 0.003 µM)	relative viability ([5]; first compound 0.03 µM)	relative viability ([6]; first compound 0.0003 µM)	relative viability ([6]; first compound 0.003 µM)	relative viability ([6]; first compound 0.03 µM)
NCI-H2087	0.918	0.749	0.535	0.166	0.14	0.158	0.795	0.935	0.734	1.29	1.55	0.772	0.646	0.558	0.597	0.683	0.549	0.29
HARA	1.1	1.19	0.733	0.605	0.621	0.0924	1.09	1.02	0.395	0.384	0.461	0.334	0.274	0.272	0.21	0.453	0.459	0.201
COR-L 105	0.701	0.714	0.434	0.703	0.796	0.591	0.799	0.779	0.558	–	–	–	0.995	1.11	0.942	0.853	0.809	0.568
NCI-H1944	0.975	0.775	0.474	0.686	0.417	0.296	1	0.858	0.439	0.406	0.345	0.262	0.626	0.471	0.324	0.469	0.359	0.29
LOU-NH91	0.635	0.585	0.346	0.345	0.386	0.337	0.737	0.65	0.504	0.772	0.566	0.515	0.408	0.431	0.448	1.02	0.679	0.582
EMC-BAC-2	1.12	0.92	0.566	1.07	0.711	0.58	0.744	0.665	0.395	0.989	0.719	0.515	0.481	0.463	0.418	0.382	0.317	0.298
BEN	0.0683	0.0526	0.0581	0.274	0.276	0.288	0.635	0.531	0.464	0.533	0.495	0.521	0.694	0.581	0.569	0.502	0.498	0.452
EKVX	0.979	0.773	0.48	0.859	0.717	0.423	0.934	0.824	0.402	0.638	0.723	0.285	0.491	0.437	0.264	0.709	0.588	0.256
NCI-H1666	0.808	0.597	0.398	0.983	0.955	0.729	0.974	0.743	0.494	0.852	0.81	0.552	0.879	0.892	0.631	1.02	0.881	0.815
UMC-11	0.31	0.277	0.265	0.913	0.775	0.742	0.491	0.588	0.434	–	–	–	0.717	0.63	0.648	0.416	0.281	0.264
SK-MES-1	1.21	0.836	0.464	0.635	0.421	0.269	0.954	0.656	0.611	–	–	–	0.994	0.744	0.376	1.02	0.739	0.526
HCC-827	0.979	0.97	0.651	0.588	0.302	0.194	0.952	0.885	0.373	0.239	0.213	0.143	0.242	0.282	0.191	0.864	0.682	0.438
LK-2	0.595	0.285	0.343	0.153	0.2	0.174	0.241	0.234	0.247	0.382	0.148	0.134	0.253	0.211	0.16	0.276	0.18	0.154
ABC-1	–	–	–	0.688	0.362	0.484	0.811	0.899	0.49	0.888	0.929	0.674	–	–	–	1.04	0.76	0.692
NCI-H2085	1.12	0.951	0.509	0.386	0.352	0.291	0.789	0.886	0.407	1.06	0.84	0.385	0.986	0.855	0.406	0.815	0.701	0.436
NCI-H1792	0.583	0.515	0.235	0.328	0.41	0.184	0.971	0.848	0.269	0.467	0.347	0.165	0.835	0.319	0.103	–	–	–
HCC-44	0.848	0.63	0.27	1.08	1.09	0.295	0.783	0.74	0.308	1	1.13	1.07	0.68	0.682	0.694	1.12	1.18	0.559
NCI-H1650	1.18	1.05	0.409	0.179	0.182	0.169	0.794	1.16	0.717	–	–	–	0.37	0.38	0.322	0.501	0.287	0.379
